These results are taken from publication PMC4846820, “A single active catalytic site is sufficient to promote transport in P-glycoprotein” (Scientific Reports, 2016).

Several values for one entry are separate records, joined by “and”; a condition that tells them apart may be missing. Equal entries are not always repeated. Where two headings read alike, the source gives them in different places.

For data set [1], the target named is T1, Wild-type Pgp (Homo sapiens, UniProt P08183). The data set is described as follows: VBL-BPY binding in permeabilized NIH 3T3 cells (confocal microscopy). The conditions noted are these: 5 mM AMP-PNP.
T1 sequence (P08183 whole entry): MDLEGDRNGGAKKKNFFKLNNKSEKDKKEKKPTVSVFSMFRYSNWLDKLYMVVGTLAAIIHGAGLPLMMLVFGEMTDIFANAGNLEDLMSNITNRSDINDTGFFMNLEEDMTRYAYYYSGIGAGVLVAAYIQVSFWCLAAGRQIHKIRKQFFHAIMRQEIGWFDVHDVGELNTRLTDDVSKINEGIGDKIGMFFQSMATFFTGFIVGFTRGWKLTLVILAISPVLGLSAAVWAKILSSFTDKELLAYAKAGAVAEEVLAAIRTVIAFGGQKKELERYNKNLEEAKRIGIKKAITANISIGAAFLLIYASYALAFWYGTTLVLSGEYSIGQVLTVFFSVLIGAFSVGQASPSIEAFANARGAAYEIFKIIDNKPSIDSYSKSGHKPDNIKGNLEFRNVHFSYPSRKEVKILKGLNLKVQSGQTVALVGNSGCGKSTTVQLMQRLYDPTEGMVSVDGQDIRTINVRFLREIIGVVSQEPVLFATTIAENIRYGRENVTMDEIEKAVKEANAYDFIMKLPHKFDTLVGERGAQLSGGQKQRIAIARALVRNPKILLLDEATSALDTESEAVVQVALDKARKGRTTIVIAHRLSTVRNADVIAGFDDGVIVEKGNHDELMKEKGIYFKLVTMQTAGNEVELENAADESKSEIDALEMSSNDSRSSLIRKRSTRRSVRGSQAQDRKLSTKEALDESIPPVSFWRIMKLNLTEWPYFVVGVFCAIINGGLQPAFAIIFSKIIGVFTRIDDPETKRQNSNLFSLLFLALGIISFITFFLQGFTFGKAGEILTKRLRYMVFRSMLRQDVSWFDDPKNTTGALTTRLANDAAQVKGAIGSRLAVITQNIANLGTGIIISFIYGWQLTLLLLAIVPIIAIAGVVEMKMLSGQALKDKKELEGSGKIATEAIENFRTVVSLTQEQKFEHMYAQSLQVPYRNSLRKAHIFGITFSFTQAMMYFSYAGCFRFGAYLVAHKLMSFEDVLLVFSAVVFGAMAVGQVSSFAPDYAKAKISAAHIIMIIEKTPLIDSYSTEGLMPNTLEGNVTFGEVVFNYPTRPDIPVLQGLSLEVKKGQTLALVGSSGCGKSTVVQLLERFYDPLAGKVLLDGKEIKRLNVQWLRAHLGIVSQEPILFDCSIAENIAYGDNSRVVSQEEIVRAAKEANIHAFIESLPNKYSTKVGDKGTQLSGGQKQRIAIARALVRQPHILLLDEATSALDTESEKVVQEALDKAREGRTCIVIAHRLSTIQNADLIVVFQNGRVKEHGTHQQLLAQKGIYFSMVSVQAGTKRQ
Description: Cells permeabilized by Staphylococcus alpha toxin (a) or Streptolysin O (b) were treated with different concentrations of CsA, ATP/Mg^2++ vanadate (Vi) or AMP-PNP/Mg^2+ followed by co-staining with VBL-BPY and 15D3-A647. The ratio of the VBL-BPY and 15D3-A647 fluorescence intensity was determined in pixels representing the plasma membrane, selected on the basis of 15D3-A647 fluorescence intensity exceeding the threshold of 300. Nucleotide-treated samples were compared to permeabilized ATP-depleted cells (0 mM nucleotide); the values are means ± SD of three independent experiments (***P < 0.001).
A further data set addresses K433M Pgp (Homo sapiens, UniProt P08183, K433M). Nature of the data set: UIC2 mAb labeling of permeabilized cells: apparent affinity of nucleotide binding. To be noted: 37 °C, Mg2+.
Data set [2] deals with T1, Wild-type Pgp. Nature of the data set: UIC2 mAb labeling of permeabilized NIH 3T3 cells: apparent affinity of nucleotide binding.
Description: (§1) Permeabilized cells (1 × 10^6 ml^−1) were pre-incubated for 20 min with nucleotides added in a broad concentration range and then further incubated for 30 min with 10 μg/ml A647-conjugated UIC2 monoclonal antibody (all at 37 °C). UIC2 mAb binding to Pgp is a reversible reaction in the presence of ATP/Mg^2+ (Supplementary Fig. S6), thus, UIC2 was applied at a quasi-saturating concentration (5Kd;UIC2; Supplementary Fig. S5) and the duration of the incubation period was sufficient to reach equilibrium binding of UIC2 (Supplementary Fig. S6).
(§2) To prevent ATP hydrolysis, ATP was added to permeabilized cells without Mg^2+ in the presence of 5 mM EDTA. Alternatively, ATP was replaced by the non-hydrolysable ATP analogue AMP-PNP/Mg^2+, or the experiment was conducted on ice. […] Following antibody labeling, samples were washed 3 times with ice-cold PBS and centrifuged for 7 min at 635 g at 4 °C. The UIC2-A647 fluorescence intensity of the cells was measured by flow cytometry and plotted as a function of the nucleotide concentration.
The target in another data set is K1076M Pgp (Homo sapiens, UniProt P08183, K1076M). The data set is described as follows: UIC2 mAb labeling of permeabilized cells: apparent affinity of nucleotide binding. To be noted: 37 °C, Mg2+.
K1076M Pgp, sequence (P08183 whole entry K1076M): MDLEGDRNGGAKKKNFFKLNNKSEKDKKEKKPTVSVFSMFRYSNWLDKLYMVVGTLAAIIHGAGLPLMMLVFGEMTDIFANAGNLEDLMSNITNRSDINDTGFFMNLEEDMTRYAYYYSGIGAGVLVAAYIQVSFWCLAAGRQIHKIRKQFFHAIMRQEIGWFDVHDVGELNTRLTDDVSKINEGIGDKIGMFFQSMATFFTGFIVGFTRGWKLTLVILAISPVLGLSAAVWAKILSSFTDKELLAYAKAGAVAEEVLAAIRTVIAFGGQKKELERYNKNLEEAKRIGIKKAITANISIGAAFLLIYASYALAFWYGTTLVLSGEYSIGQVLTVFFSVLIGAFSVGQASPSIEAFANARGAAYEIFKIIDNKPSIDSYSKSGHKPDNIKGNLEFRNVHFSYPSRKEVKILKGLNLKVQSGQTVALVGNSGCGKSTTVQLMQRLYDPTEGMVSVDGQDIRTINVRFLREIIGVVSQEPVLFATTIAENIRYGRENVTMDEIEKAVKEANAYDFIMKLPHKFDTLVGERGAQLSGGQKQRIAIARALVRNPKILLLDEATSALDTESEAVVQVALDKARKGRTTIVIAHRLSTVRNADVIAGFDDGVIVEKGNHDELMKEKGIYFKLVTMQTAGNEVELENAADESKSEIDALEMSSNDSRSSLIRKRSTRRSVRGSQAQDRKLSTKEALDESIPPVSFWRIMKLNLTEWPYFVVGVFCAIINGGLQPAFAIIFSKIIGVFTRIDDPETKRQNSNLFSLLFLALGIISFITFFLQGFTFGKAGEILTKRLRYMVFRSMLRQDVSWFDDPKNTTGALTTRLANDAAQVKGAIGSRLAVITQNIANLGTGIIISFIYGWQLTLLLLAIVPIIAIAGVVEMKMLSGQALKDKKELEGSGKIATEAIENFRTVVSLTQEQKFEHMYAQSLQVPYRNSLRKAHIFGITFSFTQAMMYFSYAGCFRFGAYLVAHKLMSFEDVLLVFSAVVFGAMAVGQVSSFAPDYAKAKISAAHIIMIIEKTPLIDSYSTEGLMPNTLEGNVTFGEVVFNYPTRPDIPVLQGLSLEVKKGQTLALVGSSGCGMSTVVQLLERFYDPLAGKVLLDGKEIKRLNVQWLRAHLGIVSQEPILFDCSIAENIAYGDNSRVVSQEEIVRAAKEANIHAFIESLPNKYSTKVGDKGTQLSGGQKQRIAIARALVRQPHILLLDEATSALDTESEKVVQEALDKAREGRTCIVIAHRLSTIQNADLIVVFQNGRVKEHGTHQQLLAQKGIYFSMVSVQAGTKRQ
In data set [3] the test system is single Walker A mutant Pgps (K433M and K1076M). Nature of the data set: UIC2 mAb labeling of permeabilized cells, single mutants taken together. The class given is cell-based, human.
Description: as §1, §2
Data set [4] has as its target T1, Wild-type Pgp. Nature of the data set: Recovery from the Vi-trapped post-hydrolysis state (UIC2 labeling). The conditions noted are these: data not shown.
For data set [5], the target named is double Walker A mutant Pgp (Homo sapiens, UniProt P08183, K1076M/K433M). The conditions noted are these: apical membrane, MDCK cells, 100 nM VBL-BPY.
double Walker A mutant Pgp, sequence (P08183 whole entry K433M/K1076M): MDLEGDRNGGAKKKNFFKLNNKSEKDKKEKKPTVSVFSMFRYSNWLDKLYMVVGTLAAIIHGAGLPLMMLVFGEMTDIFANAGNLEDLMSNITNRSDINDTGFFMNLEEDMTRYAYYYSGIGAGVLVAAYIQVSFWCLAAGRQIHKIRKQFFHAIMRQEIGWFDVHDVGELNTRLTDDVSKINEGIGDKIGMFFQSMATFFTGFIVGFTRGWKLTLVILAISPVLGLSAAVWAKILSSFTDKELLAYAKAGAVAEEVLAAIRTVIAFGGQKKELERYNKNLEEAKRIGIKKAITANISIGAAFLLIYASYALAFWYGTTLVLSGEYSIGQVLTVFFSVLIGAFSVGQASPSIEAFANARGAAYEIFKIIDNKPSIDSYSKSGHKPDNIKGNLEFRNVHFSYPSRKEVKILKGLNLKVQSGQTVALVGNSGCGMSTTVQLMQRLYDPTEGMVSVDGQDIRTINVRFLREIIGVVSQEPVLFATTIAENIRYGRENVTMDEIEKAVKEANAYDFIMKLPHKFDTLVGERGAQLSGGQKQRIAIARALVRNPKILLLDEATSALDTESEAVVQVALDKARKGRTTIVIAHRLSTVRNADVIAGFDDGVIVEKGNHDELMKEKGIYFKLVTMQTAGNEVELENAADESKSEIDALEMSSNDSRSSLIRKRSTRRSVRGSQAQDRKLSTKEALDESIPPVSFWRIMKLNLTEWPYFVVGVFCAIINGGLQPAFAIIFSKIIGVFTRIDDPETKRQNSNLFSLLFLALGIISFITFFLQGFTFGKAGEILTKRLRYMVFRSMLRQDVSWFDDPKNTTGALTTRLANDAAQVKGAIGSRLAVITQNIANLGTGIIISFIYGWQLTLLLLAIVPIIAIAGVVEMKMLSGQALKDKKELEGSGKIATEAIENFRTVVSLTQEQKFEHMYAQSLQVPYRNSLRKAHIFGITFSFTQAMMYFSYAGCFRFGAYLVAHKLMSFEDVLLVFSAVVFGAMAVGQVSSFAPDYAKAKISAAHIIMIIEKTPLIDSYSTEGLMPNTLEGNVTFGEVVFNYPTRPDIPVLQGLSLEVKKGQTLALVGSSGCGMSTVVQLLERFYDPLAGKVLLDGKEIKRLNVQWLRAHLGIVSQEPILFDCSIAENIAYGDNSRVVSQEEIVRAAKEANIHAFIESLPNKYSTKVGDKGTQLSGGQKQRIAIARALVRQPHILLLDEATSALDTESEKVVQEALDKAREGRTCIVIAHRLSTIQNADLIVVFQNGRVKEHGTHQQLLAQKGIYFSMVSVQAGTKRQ
Description: The pattern and extent of co-localization in the sections were determined by using the cross-correlation scattergrams of the green and red pixels of the images. Co-localization indices were determined from 30–50 cells (in three independent experiments). The Pearson’s co-localization index (CI) provides a reliable estimate on the extent of fluorescence co-localization: CI values close to zero indicate no or a very low degree, while CI ≥ 0.5 reflects a high degree of co-localization, whereas the CI = 1 value would correspond to a full overlap between the two colours in each pixel of the image.
Data set [6] concerns single Walker A mutant Pgp (K433M, K1076M). The data set is described as follows: Vinblastine-bodipy staining and 15D3-A647 co-localization in MDCK cells. The class given is cell-based, human. To be noted: 2 mM vanadate. As for the experimental part: Cells were plated in 8-well Ibidi μ-Slide (Ibidi GmbH, Martinsried, Germany) two days before the experiments to obtain nearly confluent cultures. The samples were pre-incubated with the following agents: Na-azide (10 mM) and 2-deoxy D-glucose (8 mM), Vi (2 mM) or NEM (50 μM) for 30 min and then further incubated with 100 nM vinblastine-bodipy (VBL-BPY) and 30 μg/ml A647-conjugated 15D3 anti-Pgp antibody for another 30 min at 37 °C.
Cellular localization of Pgp and VBL-BPY staining was studied by a three-laser confocal laser scanning microscope (Olympus FluoView 1000 confocal microscope based on an inverted IX-81 stand with an UPlansAPo 60 × NA 1.35 oil immersion objective, Hamburg, Germany). […] Fluorescence intensities were detected in the spectral ranges of 500–530 nm, 555–655 nm and 655–755 nm, respectively. To assess the co-localization of VBL-BPY (green) and Alexa 647-conjugated 15D3 (red) fluorescence signals, single optical slices of apical membrane surfaces were recorded for double-labeled cells. The pattern and extent of co-localization in the sections were determined by using the cross-correlation scattergrams of the green and red pixels of the images. Co-localization indices were determined from 30–50 cells (in three independent experiments). […]

Data set [7] addresses T1, Wild-type Pgp. The data set is described as follows: Nucleotide trapping kinetics (BeFx or Vi), UIC2-A647 labeling. The conditions noted are these: for accumulation in the trapped complex: both in WT and single Walker A mutant Pgp variants.
Description: The transition state of Pgp was stabilized by the addition of ATP/Mg^2+ and vanadate (Vi) or BeFx at 37 °C. Permeabilized cells were incubated with 100 μM (for WT) or 500 μM (for K433M and K1076M) ATP/Mg^2+ and 0.5 mM Vi[70] or BeFx (200 μM BeSO4 and 1 mM NaF) in the presence or absence of substrates in PBS at 37 °C. 500 μl aliquots were taken at regular intervals and washed twice with 5 ml ice-cold PBS containing Vi or BeFx at the same concentrations that were applied previously during incubation. […] The UIC2-A647 fluorescence intensity of the samples (F) was plotted as a function of time (t). The t1/2 values representing the half-life of the UIC2-reactive Pgp conformation were calculated from an exponential fit of the data points according to the following equation:
Data set [8] concerns the target T1, Wild-type Pgp.
Description: Permeabilized cells trapped in the presence of ATP/Mg^2+ (100 μM for wild-type and 500 μM for single Walker A mutants) and 0.5 mM Vi were washed 3 times with ice-cold PBS and incubated in the presence or absence of ATP and/or substrates (verapamil, vinblastine) at 37 °C. 500 μl aliquots containing 2 × 10^5 cells were taken at regular intervals and washed twice with 5 ml PBS. […] At the end of incubations the samples were washed three times with ice-cold PBS and kept on ice until measurement in the flow cytometer.
The test system of data set [9] is MDCK cells expressing single Walker A mutant Pgp. Nature of the data set: Cytotoxic effect of vinblastine, AlamarBlue assay. The conditions noted are these: 72 h, single mutants. It counts as cell-based, canine. Background: The colour change of resazurin is a common sign of viable cells or microbes.
Description: cells/well. 24 hours later vinblastine was added at different concentrations and the plates were
further incubated for 72 h at 37 °C. The cell viability was determined using the AlamarBlue
assay (Serotec, UK) measuring the 530/590 nm fluorescence intensity of the dye in an
automated microplate reader (BioTec Synergy HT, US). The fluorescence intensities of the
samples were normalized to the fluorescence of the vinblastine untreated control sample, and
plotted as a function of vinblastine concentration. The data points are means of eight parallel
samples (±SD) from a representative experiment out of three.

A word on the Hill slope: it is a measure of the steepness of the concentration-response curve. The term Km denotes the substrate concentration at which the rate is half of its maximum.

K433M Pgp, sequence (P08183 whole entry K433M): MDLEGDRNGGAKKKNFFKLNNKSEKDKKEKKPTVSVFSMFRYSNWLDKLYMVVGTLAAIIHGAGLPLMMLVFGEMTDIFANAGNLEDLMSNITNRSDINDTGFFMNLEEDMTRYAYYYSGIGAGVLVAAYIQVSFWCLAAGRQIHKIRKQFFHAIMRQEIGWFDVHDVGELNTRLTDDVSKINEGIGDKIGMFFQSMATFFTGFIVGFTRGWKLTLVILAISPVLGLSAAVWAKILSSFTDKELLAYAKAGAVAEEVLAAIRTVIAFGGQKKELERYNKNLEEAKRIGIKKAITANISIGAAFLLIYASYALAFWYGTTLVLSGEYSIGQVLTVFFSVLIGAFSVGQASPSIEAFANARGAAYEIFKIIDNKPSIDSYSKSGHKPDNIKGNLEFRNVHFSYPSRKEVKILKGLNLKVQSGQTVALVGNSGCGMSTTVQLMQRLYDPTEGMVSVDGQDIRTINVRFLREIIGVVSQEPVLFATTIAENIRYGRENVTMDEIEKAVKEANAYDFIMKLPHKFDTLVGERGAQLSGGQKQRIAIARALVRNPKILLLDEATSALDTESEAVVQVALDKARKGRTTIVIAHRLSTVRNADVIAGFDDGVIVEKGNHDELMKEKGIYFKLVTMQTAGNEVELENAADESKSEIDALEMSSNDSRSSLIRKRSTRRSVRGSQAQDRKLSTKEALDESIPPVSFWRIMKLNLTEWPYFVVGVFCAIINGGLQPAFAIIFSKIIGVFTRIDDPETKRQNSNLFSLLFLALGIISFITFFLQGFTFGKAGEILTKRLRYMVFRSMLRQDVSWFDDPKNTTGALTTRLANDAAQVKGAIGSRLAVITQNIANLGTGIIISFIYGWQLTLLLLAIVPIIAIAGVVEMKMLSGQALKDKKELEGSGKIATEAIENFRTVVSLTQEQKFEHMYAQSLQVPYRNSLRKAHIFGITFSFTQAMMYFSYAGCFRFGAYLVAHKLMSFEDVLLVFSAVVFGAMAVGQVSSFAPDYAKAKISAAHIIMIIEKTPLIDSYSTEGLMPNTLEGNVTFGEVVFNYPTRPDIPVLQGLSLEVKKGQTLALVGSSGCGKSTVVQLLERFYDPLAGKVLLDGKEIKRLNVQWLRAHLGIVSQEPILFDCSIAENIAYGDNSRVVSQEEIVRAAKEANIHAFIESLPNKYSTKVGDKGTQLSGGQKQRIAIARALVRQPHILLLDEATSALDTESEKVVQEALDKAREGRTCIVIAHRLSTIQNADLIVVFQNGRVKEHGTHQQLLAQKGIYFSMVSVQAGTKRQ
Description for K1076M Pgp: as §1, §2
Description for K433M Pgp: as §1, §2

On to `Nc1ncnc2c1ncn2[C@@H]1O[C@H](COP(=O)(O)OP(=O)(O)NP(=O)(O)O)[C@@H](O)[C@H]1O` [AMP-PNP], for which, at Wild-type Pgp [1], the “co-localization of VBL-BPY and Pgp” value is recorded as “significant decrease”. Besides, the Hill slope on K433M Pgp is on record as 2.06 ± 0.29; at Wild-type Pgp [2] (37 °C, Mg2+), 1.75 ± 0.34; at K1076M Pgp it was 1.68 ± 0.23. Also, the “KA (apparent nucleotide affinity) for competing UIC2 labeling” value is reported as 3.40 ± 1.42 mM at K433M Pgp; 0.27 ± 0.14 mM at Wild-type Pgp [2] (37 °C, Mg2+, 10 μg/ml UIC2); 3.01 ± 0.92 mM on K1076M Pgp.

Take `Nc1ncnc2c1ncn2[C@@H]1O[C@H](COP(=O)(O)OP(=O)(O)OP(=O)(O)O)[C@@H](O)[C@H]1O` [ATP]: the Hill slope at K433M Pgp came out at 0.90 ± 0.32; at Wild-type Pgp [2] (4 °C, Mg2+) it was 0.66 ± 0.17; at Wild-type Pgp [2] (37 °C, Mg2+), 0.77 ± 0.20; on Wild-type Pgp [2] (37 °C, no Mg2+), 1.60 ± 0.22; at K1076M Pgp, 0.89 ± 0.33. The “KA (apparent nucleotide affinity) for competing UIC2 labeling” value on K433M Pgp is 2.08 ± 1.04 mM; at Wild-type Pgp [2] (4 °C, Mg2+), 2.70 ± 1.83 mM; on Wild-type Pgp [2] (37 °C, Mg2+, 10 μg/ml UIC2) it was 0.25 ± 0.16 mM and 0.25 mM; on Wild-type Pgp [2] (37 °C, no Mg2+), 1.92 ± 0.33 mM; on K1076M Pgp it was 2.03 ± 0.91 mM. Moreover, the Kd at Wild-type Pgp [2] (read-out: Kd;ATP, dissociation constant of ATP from inward-facing Pgp, estimated with Eq. 7 of the kinetic model from KA and T2/T1;min) was around 700 µM; in [3] (estimated with Eq. 7 of the kinetic model, read-out: Kd;ATP, dissociation constant of ATP from inward-facing Pgp), around 5000 µM. The Km on Wild-type Pgp [2] (read-out: predicted KM for ATP-hydrolysis and substrate transport in the absence of UIC2, from Eq. 3 of the kinetic model) is around 60 µM; in data set [3] (from Eq. 3 of the kinetic model, read-out: predicted KM for ATP-hydrolysis and substrate transport in the absence of UIC2) it was around 700 µM. Besides, the “fraction of UIC2 label persisting in saturating ATP” value in [3] (10 μg/ml UIC2) is on record as ~ 50%. Besides, the “KA (apparent affinity for competing UIC2 labeling)” value in [3] (at [UIC2] about 5Kd;UIC2) was around 2.5 mM. Besides, the “decrease in apparent affinity for ATP of the single mutants” value in data set [3] (relative to WT) is on record as ~ 10 fold. The “effect on release of the tightly bound nucleotide from the Vi-trapped complex” value on Wild-type Pgp [4] is given as “not influenced”.

Take `CCC1(O)CC2CN(CCc3c([nH]c4ccccc34)C(C(=O)OC)(c3cc4c(cc3OC)N(C)C3C(O)(C(=O)OC)C(OC(=O)CCC5=[N+]6C(=Cc7c(C)cc(C)n7[B-]6(F)F)C=C5)C5(CC)C=CCN6CCC43C65)C2)C1` (stereo not drawn) [VBL-BPY, BODIPY FL vinblastine]: the “Pearson's cross-correlation coefficient between VBL-BPY and 15D3 anti-Pgp antibody signals” value in data set [5] is recorded as ~ 0.8.

As for `[O]=[V]([O-])([O-])[O-]` [Vi, orthovanadate], the “effect of Vi on apparent affinity” value on Wild-type Pgp [2] (ATP hydrolysis prevented (Fig. 1b-d)) is given as “not influenced at all”. For the same compound, at Wild-type Pgp [2] (hydrolysis conditions: 37 °C, ATP/Mg2+), the “effect of vanadate on apparent affinity” value is “increased the apparent affinity”. Also, in data set [6], the “effect on VBL-BPY binding to single Walker A mutants” value is “fully suppressed”. The “t1/2 of Vi trapping” value on Wild-type Pgp [7] (n = 6, Pgp variant not given) came out at 3.92 ± 0.87 min. In data set [3] (ATP/Mg2+, 37 °C), the “increase in the apparent affinity of the single mutants to ATP on addition of vanadate” value was 5–10 fold.

On to `COC(=O)c1ccccc1-c1c2ccc(=N)cc-2oc2cc(N)ccc12` [rhodamine 123], for which, at Wild-type Pgp [7], the “accumulation in the trapped complex” value is “accelerated”.

As to `CC[C@]1(O)C[C@@H]2CN(CCc3c([nH]c4ccccc34)[C@@](C(=O)OC)(c3cc4c(cc3OC)N(C)[C@H]3[C@@](O)(C(=O)OC)[C@H](OC(C)=O)[C@]5(CC)C=CCN6CC[C@]43[C@@H]65)C2)C1` [vinblastine], the “effect on release of the tightly bound nucleotide from the Vi-trapped complex” value at Wild-type Pgp [8] is on record as “not influenced”. Moreover, in [9], the “resistance against the cytotoxic effect of vinblastine” value is on record as “conferred resistance”. Besides, the “accumulation in the trapped complex” value on Wild-type Pgp [7] is given as “accelerated”. Also, on Wild-type Pgp [7] (up to 200 μM vinblastine, BeFx, 20 min, 37 °C), the “apparent affinity for ATP in the presence of substrate” value is reported as “did not change”.
